pIC50: −log10 of the molar value.
Tested on: 889142-216-R-J1-PDC complex spheroid viability
Assay: Anticancer human tumor 889142-216-R-J1-PDC patient-derived bladder carcinoma cell line growth inhibition [POLQ]
Details: for pIC50: curve of first compound; for viability, T/C: stronger effect = lower value
In short: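 Patient-derived tumour cells were co-cultured with HUVEC and mesenchymal stem cells as multicellular spheroids at 37 °C. They were treated with POLQ inhibitors (novobiocin, ART-558, RP6685) alone or combined with other agents. Top concentrations were at or near clinical Cmax (otherwise 10 microM; SN-38 at 1 microM), decreasing in half-log steps.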

[1] = second compound 0.0316 µM, first compound 0.0316 µM
[2] = second compound 0.0316 µM, first compound 0.1 µM
[3] = second compound 0.0316 µM, first compound 0.316 µM
[4] = second compound 0.0316 µM, first compound 1 µM
[5] = second compound 0.0316 µM, first compound 3.16 µM
[6] = second compound 0.0316 µM, first compound 10 µM
[7] = second compound 0.1 µM, first compound 0.0316 µM
[8] = second compound 0.1 µM, first compound 0.1 µM
[9] = second compound 0.1 µM, first compound 0.316 µM
[10] = second compound 0.1 µM, first compound 1 µM
[11] = second compound 0.1 µM, first compound 3.16 µM
[12] = second compound 0.1 µM, first compound 10 µM
[13] = second compound 0.316 µM, first compound 0.0316 µM
[14] = second compound 0.316 µM, first compound 0.1 µM
[15] = second compound 0.316 µM, first compound 0.316 µM
[16] = second compound 0.316 µM, first compound 1 µM
[17] = second compound 0.316 µM, first compound 3.16 µM
[18] = second compound 0.316 µM, first compound 10 µM
[19] = second compound 1 µM, first compound 0.0316 µM
[20] = second compound 1 µM, first compound 0.1 µM
[21] = second compound 1 µM, first compound 0.316 µM
[22] = second compound 1 µM, first compound 1 µM
[23] = second compound 1 µM, first compound 3.16 µM
[24] = second compound 1 µM, first compound 10 µM
[25] = second compound 3.16 µM, first compound 0.0316 µM
[26] = second compound 3.16 µM, first compound 0.1 µM
[27] = second compound 3.16 µM, first compound 0.316 µM
[28] = second compound 3.16 µM, first compound 1 µM
[29] = second compound 3.16 µM, first compound 3.16 µM
[30] = second compound 3.16 µM, first compound 10 µM
[31] = second compound 10 µM, first compound 0.0316 µM
[32] = second compound 10 µM, first compound 0.1 µM
[33] = second compound 10 µM, first compound 0.316 µM
[34] = second compound 10 µM, first compound 1 µM
[35] = second compound 10 µM, first compound 3.16 µM
[36] = second compound 10 µM, first compound 10 µM
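Note: spheroids exposed to compounds for seven days.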
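Throughout, for viability, T/C: 100% = DMSO vehicle control viability.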

C=CC(=O)N1CCN(c2nc(=O)n(-c3c(C)ccnc3C(C)C)c3nc(-c4c(O)cccc4F)c(F)cc23)C(C)C1 (stereo not given) + COC1C(OC(N)=O)C(O)C(Oc2ccc3c(O)c(NC(=O)c4ccc(O)c(CC=C(C)C)c4)c(=O)oc3c2C)OC1(C)C
pIC50 (second compound 0.0316 µM): < 5.00
pIC50 (second compound 0.1 µM): < 5.00
pIC50 (second compound 0.316 µM): < 5.00
pIC50 (second compound 1 µM): < 5.00
pIC50 (second compound 3.16 µM): < 5.00
pIC50 (second compound 10 µM): < 5.00
viability, T/C [1]: 111%
viability, T/C [2]: 114%
viability, T/C [3]: 121%
viability, T/C [4]: 111%
viability, T/C [5]: 131%
viability, T/C [6]: 88.7%
viability, T/C [7]: 113%
viability, T/C [8]: 116%
viability, T/C [9]: 116%
viability, T/C [10]: 146%
viability, T/C [11]: 127%
viability, T/C [12]: 82.4%
viability, T/C [13]: 111%
viability, T/C [14]: 133%
viability, T/C [15]: 103%
viability, T/C [16]: 125%
viability, T/C [17]: 135%
viability, T/C [18]: 78%
viability, T/C [19]: 97.3%
viability, T/C [20]: 123%
viability, T/C [21]: 126%
viability, T/C [22]: 109%
viability, T/C [23]: 112%
viability, T/C [24]: 103%
viability, T/C [25]: 98.3%
viability, T/C [26]: 124%
viability, T/C [27]: 115%
viability, T/C [28]: 132%
viability, T/C [29]: 123%
viability, T/C [30]: 82.7%
viability, T/C [31]: 115%
viability, T/C [32]: 102%
viability, T/C [33]: 112%
viability, T/C [34]: 113%
viability, T/C [35]: 145%
viability, T/C [36]: 85.3%

CC(C)n1c(=O)n(C)c2cnc3cc(F)c(-c4ccc(OCCCN5CCCCC5)nc4)cc3c21 + COC1C(OC(N)=O)C(O)C(Oc2ccc3c(O)c(NC(=O)c4ccc(O)c(CC=C(C)C)c4)c(=O)oc3c2C)OC1(C)C
pIC50 (second compound 0.0316 µM): < 5.00
pIC50 (second compound 0.1 µM): 5.22
pIC50 (second compound 0.316 µM): < 5.00
pIC50 (second compound 1 µM): < 5.00
pIC50 (second compound 3.16 µM): 5.06
pIC50 (second compound 10 µM): < 5.00
viability, T/C [1]: 91.2%
viability, T/C [2]: 86.3%
viability, T/C [3]: 78.3%
viability, T/C [4]: 86.5%
viability, T/C [5]: 54.6%
viability, T/C [6]: 52.8%
viability, T/C [7]: 88.6%
viability, T/C [8]: 105%
viability, T/C [9]: 81.7%
viability, T/C [10]: 85.8%
viability, T/C [11]: 60.4%
viability, T/C [12]: 41.5%
viability, T/C [13]: 105%
viability, T/C [14]: 71.1%
viability, T/C [15]: 85.8%
viability, T/C [16]: 76.8%
viability, T/C [17]: 58.9%
viability, T/C [18]: 56.8%
viability, T/C [19]: 113%
viability, T/C [20]: 86.2%
viability, T/C [21]: 80.4%
viability, T/C [22]: 71.2%
viability, T/C [23]: 67.1%
viability, T/C [24]: 52.2%
viability, T/C [25]: 92.4%
viability, T/C [26]: 106%
viability, T/C [27]: 88.7%
viability, T/C [28]: 71.4%
viability, T/C [29]: 61.6%
viability, T/C [30]: 46.9%
viability, T/C [31]: 94.4%
viability, T/C [32]: 92.8%
viability, T/C [33]: 81.3%
viability, T/C [34]: 88%
viability, T/C [35]: 65.9%
viability, T/C [36]: 53.7%

CC1COCCN1c1cc(C2(S(C)(=N)=O)CC2)nc(-c2ccnc3[nH]ccc23)n1 (stereo not given) + COC1C(OC(N)=O)C(O)C(Oc2ccc3c(O)c(NC(=O)c4ccc(O)c(CC=C(C)C)c4)c(=O)oc3c2C)OC1(C)C
pIC50 (second compound 0.0316 µM): 5.71
pIC50 (second compound 0.1 µM): 5.74
pIC50 (second compound 0.316 µM): 6.00
pIC50 (second compound 1 µM): 6.01
pIC50 (second compound 3.16 µM): 5.71
pIC50 (second compound 10 µM): 5.74
viability, T/C [1]: 99%
viability, T/C [2]: 93.9%
viability, T/C [3]: 71.5%
viability, T/C [4]: 59.8%
viability, T/C [5]: 42.9%
viability, T/C [6]: 40.4%
viability, T/C [7]: 90.8%
viability, T/C [8]: 102%
viability, T/C [9]: 82.9%
viability, T/C [10]: 56.6%
viability, T/C [11]: 46.1%
viability, T/C [12]: 39.8%
viability, T/C [13]: 84.3%
viability, T/C [14]: 92.8%
viability, T/C [15]: 80.9%
viability, T/C [16]: 49.7%
viability, T/C [17]: 49.6%
viability, T/C [18]: 38.9%
viability, T/C [19]: 83.4%
viability, T/C [20]: 131%
viability, T/C [21]: 73.6%
viability, T/C [22]: 60.5%
viability, T/C [23]: 47.6%
viability, T/C [24]: 40.4%
viability, T/C [25]: 100%
viability, T/C [26]: 98%
viability, T/C [27]: 85.6%
viability, T/C [28]: 55.4%
viability, T/C [29]: 46.2%
viability, T/C [30]: 45.2%
viability, T/C [31]: 103%
viability, T/C [32]: 84.2%
viability, T/C [33]: 87.3%
viability, T/C [34]: 53%
viability, T/C [35]: 49.5%
viability, T/C [36]: 43.9%

CCc1cc2c(N3CCc4c(cc(Cn5ccnc5)cc4-c4cn(C)nc4C(F)(F)F)C3=O)ccnc2c(OC)n1 + COC1C(OC(N)=O)C(O)C(Oc2ccc3c(O)c(NC(=O)c4ccc(O)c(CC=C(C)C)c4)c(=O)oc3c2C)OC1(C)C
pIC50 (second compound 0.0316 µM): < 5.00
pIC50 (second compound 0.1 µM): < 5.00
pIC50 (second compound 0.316 µM): < 5.00
pIC50 (second compound 1 µM): < 5.00
pIC50 (second compound 3.16 µM): < 5.00
pIC50 (second compound 10 µM): < 5.00
viability, T/C [1]: 120%
viability, T/C [2]: 109%
viability, T/C [3]: 119%
viability, T/C [4]: 95.5%
viability, T/C [5]: 69.1%
viability, T/C [6]: 83%
viability, T/C [7]: 101%
viability, T/C [8]: 117%
viability, T/C [9]: 98.3%
viability, T/C [10]: 111%
viability, T/C [11]: 105%
viability, T/C [12]: 62%
viability, T/C [13]: 105%
viability, T/C [14]: 106%
viability, T/C [15]: 102%
viability, T/C [16]: 115%
viability, T/C [17]: 96.1%
viability, T/C [18]: 64.3%
viability, T/C [19]: 112%
viability, T/C [20]: 130%
viability, T/C [21]: 107%
viability, T/C [22]: 102%
viability, T/C [23]: 83.9%
viability, T/C [24]: 77.7%
viability, T/C [25]: 95.6%
viability, T/C [26]: 106%
viability, T/C [27]: 117%
viability, T/C [28]: 94.2%
viability, T/C [29]: 95%
viability, T/C [30]: 77.9%
viability, T/C [31]: 122%
viability, T/C [32]: 103%
viability, T/C [33]: 112%
viability, T/C [34]: 109%
viability, T/C [35]: 91.6%
viability, T/C [36]: 67.3%

COc1ccc([C@@H](O)c2cc(-c3ncnc4cc(N5CCOCC5)ccc34)c(F)cc2Cl)nn1 + COC1C(OC(N)=O)C(O)C(Oc2ccc3c(O)c(NC(=O)c4ccc(O)c(CC=C(C)C)c4)c(=O)oc3c2C)OC1(C)C
pIC50 (second compound 0.0316 µM): 5.37
pIC50 (second compound 0.1 µM): < 5.00
pIC50 (second compound 0.316 µM): 5.20
pIC50 (second compound 1 µM): 5.54
pIC50 (second compound 3.16 µM): 5.44
pIC50 (second compound 10 µM): 5.34
viability, T/C [1]: 88.8%
viability, T/C [2]: 88.3%
viability, T/C [3]: 63.9%
viability, T/C [4]: 63%
viability, T/C [5]: 55.6%
viability, T/C [6]: 41.5%
viability, T/C [7]: 104%
viability, T/C [8]: 125%
viability, T/C [9]: 76.2%
viability, T/C [10]: 62.7%
viability, T/C [11]: 55.7%
viability, T/C [12]: 35.9%
viability, T/C [13]: 92.2%
viability, T/C [14]: 104%
viability, T/C [15]: 87%
viability, T/C [16]: 79.1%
viability, T/C [17]: 63.4%
viability, T/C [18]: 41.4%
viability, T/C [19]: 90.3%
viability, T/C [20]: 112%
viability, T/C [21]: 86.7%
viability, T/C [22]: 59.8%
viability, T/C [23]: 60.3%
viability, T/C [24]: 37.3%
viability, T/C [25]: 81.3%
viability, T/C [26]: 120%
viability, T/C [27]: 77.6%
viability, T/C [28]: 66.9%
viability, T/C [29]: 56.9%
viability, T/C [30]: 39.8%
viability, T/C [31]: 98.2%
viability, T/C [32]: 82.1%
viability, T/C [33]: 104%
viability, T/C [34]: 74.8%
viability, T/C [35]: 59.6%
viability, T/C [36]: 32.9%
